Six molecules from ChEMBL document CHEMBL1138165, “Structure-activity studies of quinuclidinone analogs as anti-proliferative agents in lung cancer cell lines” (2006) can be followed below.

Each structure is given as a SMILES string. The source made the active and inactive calls. No cut-off for these calls is given here.

For assay [1], the system named is NCI-H1299. The assay can be described thus: Viability of H1299 (p53 null) cells at 4 mM by MTT assay. The assay is classed as functional. The note with it: Homo sapiens.
For assay [2], the system named is NCI-H1299. The assay can be described thus: Viability of H1299 (p53 null) cells in presence of 4 Gy at 4 mM by MTT assay. The assay is classed as functional. The note with it: Homo sapiens. Background: Tetrazolium dyes change colour on reduction, which living cells bring about.

Regarding `O=C1C2CCN(CC2)C1(CO)CO`, the result in assay [1] was Active.

Broadly, the GI50 is the concentration giving 50% growth inhibition. `CC1(C)OCC2(CO1)C(=O)C1CCN2CC1`: the values for the GI50 in assay [1] and in assay [2] were 19.2 µM and 4.74 µM, respectively. Consider `O=C1CN2CCC1CC2`, for which, in assay [1], the outcome was inactive. Regarding `OCC1(CO)C(O)C2CCN1CC2` (stereo not drawn), the result in assay [1] was inactive. As to `O=C1C2CCN(CC2)C12COC(c1ccccc1)OC2` (stereo not drawn), the GI50 in assay [1] is 17.3 µM; in assay [2], 4.49 µM. Regarding `CC(=O)OCC1(COC(C)=O)C(=O)C2CCN1CC2`, the result in assay [1] was Active.
